{
  "source": "patent US5843941A",
  "about": "“Ras farnesyl transferase inhibitors” (Genentech, Inc., priority 1994, dated 1998)",
  "key": {"[1]": {"system": "untransformed parental rat-1 fibroblasts", "assay": "Cell growth of untransformed parental rat-1 fibroblasts", "format": "cell-based", "conditions": "up to 25 μM; FIG. 7 Panel F", "procedure": "(§1) To examine the effects of farnesyltransferase inhibition on cell growth, three cell lines (ras-transformed rat-1, src-transformed rat-1, and parental rat-1 cells) were seeded (see FIG. 7) at low density and allowed to grow for 10 days in the absence or presence of increasing concentrations of BZA-5B (compound 37). See Example 128 for description of cells. On day 0, cells were plated in monolayer culture at 2×10^3 cells per well (24-well plates) in 1 ml DMEM supplemented with 10% fetal calf serum, 100 U/ml penicillin, 100 μg/ml streptomycin, 0.5 mM DTT, 0.025% DMSO, and the indicated concentration of BZA-5B (compound 37). On days 3 and 7, cells were washed and refed with the same medium. At the time indicated in FIG. 7, cells were harvested by trypsinization and counted in a Coulter counter. Panels A, C, E show the growth rate of each cell line in the absence of inhibitor. Panels B, D, F show the inhibition of growth as a function of concentration of BZA-5B at each time point. The \"100% values\" correspond to the appropriate cell numbers in Panels A, C, E at the indicated time. Each value represents a single incubation. As shown in the panels A, C, and E, all three cell lines grew logarithmically with no added inhibitor. […] The growth of src-transformed (Panel D) and untransformed cells (Panel F) were not affected at concentrations of BZA-5B up to 25 μM."}, "[2]": {"system": "src-transformed rat-1 fibroblasts", "assay": "Cell growth of src-transformed rat-1 fibroblasts", "format": "cell-based", "conditions": "up to 25 μM; FIG. 7 Panel D", "procedure": "as §1"}, "[3]": {"system": "ras-transformed rat-1 fibroblasts", "assay": "Cell growth of ras-transformed rat-1 fibroblasts", "format": "cell-based", "conditions": "Fibroblast, 240 h, 10 days, FIG. 7 Panel B", "procedure": "as §1"}, "[4]": {"biological_target": "CAAX farnesyltransferase (Rattus norvegicus, UniProt Q02293+Q04631)", "sequence (Q02293 whole entry, one chain of several)": "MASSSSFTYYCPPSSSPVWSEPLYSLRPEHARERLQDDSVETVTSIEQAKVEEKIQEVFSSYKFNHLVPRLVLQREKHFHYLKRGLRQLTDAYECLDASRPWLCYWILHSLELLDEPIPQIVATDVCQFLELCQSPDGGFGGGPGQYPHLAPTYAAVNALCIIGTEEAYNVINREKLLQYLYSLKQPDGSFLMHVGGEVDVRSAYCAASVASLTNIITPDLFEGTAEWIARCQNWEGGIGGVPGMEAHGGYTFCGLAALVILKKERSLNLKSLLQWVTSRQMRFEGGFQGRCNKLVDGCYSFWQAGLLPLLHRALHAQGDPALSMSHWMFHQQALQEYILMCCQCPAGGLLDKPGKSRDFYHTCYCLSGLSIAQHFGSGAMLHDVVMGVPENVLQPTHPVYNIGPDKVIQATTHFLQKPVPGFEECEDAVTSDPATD", "assay": "In vitro inhibition of CAAX farnesyltransferase", "format": "biochemical", "parameters": "purified to homogeneity from rat brain homogenates; from tissue; host or cells: rat brain; alternatively recombinant enzyme from a baculovirus expression system", "conditions": "Table D", "how_it_was_run": "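Native or recombinant (baculovirus-infected cells, Q-Sepharose purified) farnesyltransferase incubated 30 min at 37 °C. [3H]farnesyl transfer to p21H-ras measured by SDS/trichloroacetic acid precipitation, nitrocellulose filtration and scintillation counting.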"}, "[5]": {"system": "farnesylated proteins F1, F2 and F3 in Met18b-2 cells", "assay": "Inhibition of intracellular farnesylation in intact Met18b-2 cells, Triton-soluble proteins F1, F2, F3", "format": "cell-based, Chinese hamster", "conditions": "Cricetulus griseus, read-out: EC 90% \"B isomer\"", "from_the_text": "To study farnesylation in intact cells we used Met18b-2 cells, a line of Chinese hamster ovary (CHO) cells that takes up [3H]mevalonate efficiently (see Faust, J., and Krieger, M. J. Biol. Chem. 262, 1966 (1987)) owing to the production of a mevalonate transport protein (see Kim, C. M., Goldstein, J. L., Brown, M. S. J. Biol. Chem. 267, 23113 (1992)). The [3H]mevalonate is converted by the cells into [3H]farnesyl pyrophosphate and [3H]geranylgeranyl pyrophosphate, which are then attached to proteins (Kim, C. M., Goldstein, J. L., Brown, M. S. J. Biol. Chem. 267, 23113 (1992)). In the assay, stock cultures of Met18b-2 cells were seeded at a density of 3-105 cells per 60 mm dish in 3 ml of medium A (Dulbecco's modified Eagle medium/Ham's F12 medium (1:1, v/v) containing 100 U/ml penicillin and 100 μg/ml streptomycin) supplemented with 5% (v/v) fetal calf serum (FCS). On day 3, each monolayer was refed with 1 ml medium A supplemented with 1% FCS (dialyzed against 0.15 M NaCl). At this point the cells were treated with 100 μM compactin (see Brown, M. S., Faust, J. R., Goldstein, J. L., Kaneko, I., and Endo, A. J. Biol. Chem. 253, 1121 (1978)) which blocks the synthesis of unlabeled mevalonate within the cells. Each compound was dissolved at 25 mM in DMSO/10 mM DTT immediately before use and 10 μl of this solution added directly. After 2 hr incubation at 37° C., each monolayer received 100 μCi [3H]mevalonate (60 Ci/mmol, American Radiolabeled Chemicals, Inc.) added in 100 μl of the medium A, and the incubation continued for 4 hr. The cells were harvested by rinsing three times with 3 ml of 50 mM Tris-HCl/0.15 M NaCl (pH 7.5). 300 μl of lysis buffer (0.5X Dulbecco's phosphate-buffered saline containing 1% Triton X-100, 5 μg/ml leupeptin, 5 μg/ml pepstatin, 0.5 mM phenylmethylsulfonyl fluoride, and 0.05 U/ml aprotinin) was added to each monolayer. After incubation on ice for 5 mon, the lysates were centrifuged 30 sec in a microfuge at 12,000 g. The resulting supernatant was tranferred to a new tube, and each pellet was resuspended in 60 μl of lysis buffer. Protein concentrations were determined using the BCA protein assay reagent (Pierce) according to the manufacturer's instructions. Detergent-soluble (supernatant) and -insoluble (pellet) samples were mixed with 2X SDS sample buffer (see Laemmli, U. K. Nature 227, 680 (1970)) and heated at 95° C. for 5 min before electrophoresis. Each lane contained 90 μg protein, and was run on a 12.5% SDS-polyacrylamide gel. The gel was dried, treated with ENTENSIFY (NEN-DuPont), and exposed to Kodak XOMAT-AR film for 9 h at -80° C. to allow visualization of all prenylated proteins. Migration of [14C]methylated molecular weight standards (Amersham) were used as markers.\nThe results of this assay are shown in FIG. 3, using a final concentration of 250 μM for each inhibitor. […] As shown in the figure, none of the control peptides or control benzodiazepine-peptideomimetics altered the prenylation of proteins in intact cells.\nUsing the same cells and procedures followed above for Example 125, we measured the dose dependence upon the inhibition of farnesylation in intact cells. […] Compound 37B inhibited the famesylation of F1-3 detectably at 10 μM, and almost completely at 25 μM.\nIn this manner, it is possible to obtain data regarding the comparative potency of these inhibitors upon the level of intracellular farnesylation. We have chosen to report the EC90% values for these inhibitors as the concentration required for a reduction in the Triton- soluble labelling (denoted F-1, F-2, and F-3) to 90% of control cells (untreated)."}},
  "data": [
    {"smiles": "COC(=O)[C@H](CCSC)NC(=O)CN1C(=O)C(N(C)C(=O)[C@@H](N)CS)N=C(c2ccccc2)c2ccccc21", "note": "(stereo partly drawn) [BZA-5B]", "values": [
      {"measurement": "growth of untransformed cells", "setting": "[1]", "result": "not affected"},
      {"measurement": "growth of src-transformed cells", "setting": "[2]", "result": "not affected"},
      {"measurement": "inhibition at 25 µM", "setting": "[3]", "result": "~90", "unit": "%"}
    ]},
    {"smiles": "CN(C(=O)[C@@H](N)CSSC(C)(C)C)C1N=C(c2ccccc2)c2cc(Cl)ccc2N(CC(=O)N[C@@H](Cc2ccccc2)C(=O)OC2CCCCC2)C1=O", "note": "(stereo partly drawn) [compound 120, N-[[3-[(2-amino-3-tert-butylthiomercapto-1-oxopropyl)methylamino]-2,3-dihydro-2-oxo-5-phenyl-7-chloro-1H-1,4-benzodiazepin-1-yl]acetyl]-L-phenylalanine cyclohexyl ester]", "values": [
      {"measurement": "EC50", "setting": "[4]; EC50 (μM) \"A\", diastereomer A", "result": "> 3", "unit": "µM"},
      {"measurement": "EC50", "setting": "[4]; EC50 (μM) \"B\", diastereomer B", "result": "> 3", "unit": "µM"},
      {"measurement": "EC90", "setting": "[5]", "result": 5, "unit": "µM"}
    ]}
  ]
}
